Measured values reported in publication PMC11562385 (RSC Chemical Biology, 2024).
Where two headings read alike, the source gives them in different places. Peptide text beside a SMILES is read from it.

Key:
[1] = Variable-temperature CD melting curves (CD-melts at 228±2 nm and 202±2 nm), individual and global two-state fits; format: physicochemical; settings: for ΔGF0: CD-melt at 228±2 nm, individual two-state Gibbs-Helmholtz fit (Origin 9.0), phosphate buffer 15 mM pH 6.5 ± MeOH; for ΔGF0 / DHm (fitted value, results from OriginPro) / Tm (fitted value, results from OriginPro): 0-95 °C; for Tm / Hairpin %-fold 291K / Hairpin %-fold 310K: Table S5, individual fit; for Tm: 228±2 nm; for -TΔSF0 / ΔCpF0 / ΔHF0 / ΔHm: as E16; for VT-CD %-fold: folded fraction (χF) at 25 °C from CD-melts, (R) regular / (B) bulged fold; for VT-CD %-fold / VT-CD Tm (°C): phosphate buffer 15 mM pH 6.5, up to 20% MeOH; for VT-CD Tm (°C): melting temperature from CD-melts; for DHm, fitted value from OriginPro / Tm, fitted value from OriginPro: xlsx sheet of the peptide, individual fit of CD-melt; for DHm (fitted value, results from OriginPro) / Tm (fitted value, results from OriginPro): two-state fit of the CD melt θ - θcoil(95) vs T, l 0.1 cm, peptide c 3.2e-5 to 5e-5 M
Procedure: Recently, our laboratory brought forward a novel synthetic technology for the synthesis of acyclic β-hairpins with long loops. […] To compare hairpins’ stability, both regular (R) and bulged (B) scaffolds were crafted around a flexible 10-residue model loop (G4K2G4) and analyzed by CD (circular dichroism) spectroscopy (Fig. 2(A), see ESI, ^† Table S5). The […] structure of these model scaffolds 1avs.2a in solution were recorded in the far-UV CD spectra. […] The CD-exciton intensity was therefore used as a global probe to determine the %-folding of ADAPTins and to obtain melting curves corresponding to the hairpin fraying mechanism upon a gradual increase of temperature (0 to 95 °C).[68] […] In addition, NMR (nuclear magnetic resonance) chemical shifts were measured to determine variations in backbone […] structures (Fig. 2(B)). Secondary chemical shift deviations (CSDs) were calculated against random coil values[69] for both ADAPTin scaffolds 1vs.2 to verify that the hairpins were folded and if any variation of conformational rigidity exist within the loops. […]
Mass Spectrometer coupled to a Vanquish™ Neo UHPLC System (Thermo Scientific™). Peptide solutions for circular dichroism (CD) were prepared within a concentration range of 15-120 µM in a phosphate buffer (15 mM, […]
measured accurately using a JASCO V-670 spectrophotometer relied on the combined molar absorptivity of Trp (ε280 = 5580 M-1 .cm-1 per Trp) and Tyr (ε280 = 1280 M-1 .cm-1 per Tyr) to determine each sample's concentration.
CD spectra were recorded using a JASCO J-810 Spectropolarimeter equipped with a temperature controller module JASCO PFD-425S. Raw CD melting curves were processed in SpectraGryph, and fitting was performed in OriginPro 9.0 (Originlab Corporation, U.S.A.). NMR samples were prepared by reconstituting freeze -dried peptides (~ 1-5 mg) in mixture of water and DMSO -d6 (90:10 v/v) using 2,2-dimethyl-2-silapentane-5-sulfonate (DSS) as internal standard for chemical shifts (0 ppm), and spectra were recorded at 291 K (18 °C) unless otherwise stated. Chemical shifts ( δ) are reported in ppm. Samples for NMR experiments were prepared in a range of 3-10 mM of peptide in solution unless otherwise noted.

[2] = target: T1, PD1:PDL1 interaction (Homo sapiens, UniProt Q15116); experiment: PD1/PDL1 immunoblocking ELISA (BPS Bioscience kit cat # 72005); format: binding; settings: for LE (ligand efficiency): LE = -RTln(EC50)/HA, HA = non-hydrogen atoms omitting the strap (RWV•••VWE)
T1 construct: purchased BPS Bioscience 72005
Procedure: Original loops with Phe/Trp and their Gly-derived analogs. Experimental EC50 values from inhibitory dose–response curves. Error bars indicate the mean ± SD, (n = 3). […]
SDS -Pages, buffers, and stain were purchased from Fisher
8. Immunoblocking ELISA Assay
Peptide inhibitor stock solutions were prepared in the concentration range of approximately 1-5 mM in DMSO. […]
plate was then washed and blocked with blocking buffer for 1 h at room temperature. Inhibitor solutions (ranging from 0.01 to 100 μM) and a blank solution (DMSO/PBS buffer) were added to designated wells. To initiate the […]
inhibitor solutions. After a 2 h incubation at room temperature, the plate was washed and blocked again for 10 min. Streptavidin-HRP (diluted at 1 : 1000) was added and incubated for 1 h at room temperature with gentle shaking. The plate was washed and blocked once more for 10 min. ELISA ECL substrate was added, and the resulting chemoluminescence was immediately measured in a luminometer (FLUOstar OPTIMA, BMG Labtech).
The luminescence value of the blank was subtracted from all readings according to the manufacturer's

[3] = [PD1•PDL1] blocking EC50, Fig. 3B, cut-off bars of congeneric pairs (Phe/Trp vs Gly), n = 3
[4] = ELISA, mean of three independent experiments, read-out: EC50 Value

T1 sequence (Q15116 25-167 limits assumed): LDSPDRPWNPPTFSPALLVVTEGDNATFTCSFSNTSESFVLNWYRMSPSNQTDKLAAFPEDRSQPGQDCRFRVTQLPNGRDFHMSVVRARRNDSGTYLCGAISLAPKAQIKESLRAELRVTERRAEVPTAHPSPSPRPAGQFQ

Structure (SMILES) | ΔGF0 [1] | Tm [1] | Hairpin %-fold 291K [1] | Hairpin %-fold 310K [1] | -TΔSF0 [1] | ΔCpF0 [1] | ΔHF0 [1] | VT-CD %-fold [1] | VT-CD Tm (°C) [1] | DHm, fitted value from OriginPro [1] | Tm, fitted value from OriginPro [1] | LE (ligand efficiency) [2] | EC50 ([2]; PD1:PDL1 inhibition EC50, ELISA, PDL1-coated plate, biotin-labeled human PD-1, 2 h rt, chemiluminescence, Hill fit, mean ± SD, n = 3, SD) | EC50 [2, 3] | ΔHm [1] | EC50 [2, 4] | DHm (fitted value, results from OriginPro) [1] | Tm (fitted value, results from OriginPro) [1] | TM (°C) ([1]; Fig. 2, CD-melts of regular vs bulged scaffolds)
CSCC[C@H](NC(=O)[C@H](CC(=O)O)NC(=O)[C@H](Cc1ccccc1)NC(=O)[C@H](CCCNC(=N)N)NC(=O)[C@H](Cc1ccc(O)cc1)NC(=O)[C@H](CC(=O)O)NC(=O)[C@H](CCCNC(=N)N)NC(=O)[C@H](Cc1c[nH]c2ccccc12)NC(=O)[C@@H](NC(=O)[C@H](Cc1c[nH]c2ccccc12)NC(=O)[C@@H](N)CCCNC(=N)N)C(C)C)C(=O)NCC(=O)N[C@@H](Cc1ccccc1)C(=O)N[C@@H](CC(=O)O)C(=O)N[C@@H](Cc1c[nH]c2ccccc12)C(=O)N[C@H](C(=O)N[C@@H](Cc1c[nH]c2ccccc12)C(=O)N[C@@H](CCC(=O)O)C(=O)O)C(C)C [1c] (H-RWVWRDYRFDMGFDWVWE-OH) | 0.31 ± 0.01 kcal/mol | -2.99 oC | 40 ± 1% | 32 ± 1% | 3.66 ± 0.01 kcal/mol | -23 ± 0.4 cal.deg-1.mol-1 | -3.35 ± 0.01 kcal/mol | 40% (R) | <0 °C | -2.72263 kcal/mol | 270.158 K | 0.06 | 12.3 ± 1.5 µM | > 5 µM | – | – | – | – | –
CSCC[C@H](NC(=O)[C@H](CC(=O)O)NC(=O)[C@H](Cc1ccccc1)NC(=O)[C@H](CCCNC(=N)N)NC(=O)[C@H](Cc1ccc(O)cc1)NC(=O)[C@H](CC(=O)O)NC(=O)[C@H](CCCNC(=N)N)NC(=O)[C@H](CCCNC(=N)N)NC(=O)[C@H](Cc1c[nH]c2ccccc12)NC(=O)[C@@H](NC(=O)[C@H](Cc1c[nH]c2ccccc12)NC(=O)[C@@H](N)CCCNC(=N)N)C(C)C)C(=O)NCC(=O)N[C@@H](Cc1ccccc1)C(=O)N[C@@H](CC(=O)O)C(=O)N[C@@H](Cc1ccc(O)cc1)C(=O)N[C@@H](Cc1c[nH]c2ccccc12)C(=O)N[C@H](C(=O)N[C@@H](Cc1c[nH]c2ccccc12)C(=O)N[C@@H](CCC(=O)O)C(=O)O)C(C)C [1d] (H-RWVWRRDYRFDMGFDYWVWE-OH) | 0.010 ± 0.001 kcal/mol | 34.9 oC | 48 ± 1% | 49 ± 1% | -1.08 ± 0.04 kcal/mol | -189 ± 2 cal.deg-1.mol-1 | 1.09 ± 0.04 kcal/mol | 49% (R) | – | -0.0374427 kcal/mol | 303.944 K | 0.05 | – | – | -0.037 ± 0.07 kcal/mol | 6.8 µM | – | – | –
CC(C)[C@H](NC(=O)CNC(=O)[C@H](CO)NC(=O)[C@H](CO)NC(=O)[C@H](CC(=O)O)NC(=O)[C@@H]1CCCN1C(=O)[C@H](CO)NC(=O)[C@H](Cc1c[nH]c2ccccc12)NC(=O)[C@@H](NC(=O)[C@H](Cc1c[nH]c2ccccc12)NC(=O)[C@@H](N)CCCNC(=N)N)C(C)C)C(=O)N[C@@H](C)C(=O)N[C@@H](Cc1ccc(O)cc1)C(=O)N[C@@H](Cc1c[nH]c2ccccc12)C(=O)N[C@H](C(=O)N[C@@H](Cc1c[nH]c2ccccc12)C(=O)N[C@@H](CCC(=O)O)C(=O)O)C(C)C [1e] (H-RWVWSPDSSGVAYWVWE-OH) | -0.90 ± 0.01 kcal/mol | 58.3 oC | 85 ± 1% | 74 ± 1% | 5.60 ± 0.06 kcal/mol | -148 ± 4 cal.deg-1.mol-1 | -6.50 ± 0.06 kcal/mol | 85% (R) | 58 °C | – | – | 0.10 | – | – | -11.5 ± 0.05 kcal/mol | 0.27 µM | -11.4534 kcal/mol | 331.438 K | –
CC[C@H](C)[C@H](NC(=O)[C@H](CC(=O)O)NC(=O)[C@H](CC(C)C)NC(=O)[C@H](CC(=O)O)NC(=O)[C@H](CCCNC(=N)N)NC(=O)[C@H](Cc1c[nH]c2ccccc12)NC(=O)[C@@H](NC(=O)[C@H](Cc1c[nH]c2ccccc12)NC(=O)[C@@H](N)CCCNC(=N)N)C(C)C)C(=O)N[C@@H](C)C(=O)N[C@H](C(=O)N[C@H](C(=O)N[C@@H](CCCNC(=N)N)C(=O)N[C@@H](CC(=O)O)C(=O)N[C@@H](Cc1ccc(O)cc1)C(=O)N[C@@H](Cc1c[nH]c2ccccc12)C(=O)N[C@H](C(=O)N[C@@H](Cc1c[nH]c2ccccc12)C(=O)N[C@@H](CCC(=O)O)C(=O)O)C(C)C)[C@@H](C)O)[C@@H](C)O [1f] (H-RWVWRDLDIATTRDYWVWE-OH) | -0.49 ± 0.01 kcal/mol | 39.4 oC | 78 ± 1% | 53 ± 1% | 9.96 ± 0.06 kcal/mol | -15 ± 3 cal.deg-1.mol-1 | -10.5 ± 0.06 kcal/mol | 78% (R) | 39 °C | – | – | 0.06 | – | – | -10.7 ± 0.04 kcal/mol | 3.36 µM | -10.6792 kcal/mol | 312.539 K | –
CSCC[C@H](NC(=O)[C@H](CC(=O)O)NC(=O)CNC(=O)[C@H](CCCNC(=N)N)NC(=O)[C@H](Cc1ccc(O)cc1)NC(=O)[C@H](CC(=O)O)NC(=O)[C@H](CCCNC(=N)N)NC(=O)[C@H](CCCNC(=N)N)NC(=O)[C@H](C)NC(=O)[C@@H](NC(=O)[C@H](Cc1c[nH]c2ccccc12)NC(=O)[C@@H](N)CCCNC(=N)N)C(C)C)C(=O)NCC(=O)N[C@@H](Cc1ccccc1)C(=O)N[C@@H](CC(=O)O)C(=O)N[C@@H](Cc1ccc(O)cc1)C(=O)N[C@@H](Cc1c[nH]c2ccccc12)C(=O)N[C@H](C(=O)N[C@@H](Cc1c[nH]c2ccccc12)C(=O)N[C@@H](CCC(=O)O)C(=O)O)C(C)C [2b] (H-RWVARRDYRGDMGFDYWVWE-OH) | -1.24 ± 0.01 kcal/mol | 59.1 oC | 92 ± 1% | 81 ± 1% | 7.65 ± 0.03 kcal/mol | -193 ±1 cal.deg-1.mol-1 | -8.89 ± 0.03 kcal/mol | 92% (B) | 59 °C | -15.492 kcal/mol | 332.248 K | 0.06 | – | > 5 µM | – | 7.05 µM | – | – | 59 °C
